From US10596160B2, “Compositions, methods and uses for the treatment of diabetes and related conditions by controlling blood glucose level” (PHARNEXT, priority 2012, dated 2020)

Experiments:
[1] = test system: beta pancreatic INS-1 cells; assay: Prevention of beta cells apoptosis (ssDNA apoptosis detection kit); format: cell-based; parameters: concentration or dose not given beside the values; conditions: 1 h pre-incubation then 24 h in apoptotic conditions, drugs tested alone
Protocol: The beta pancreatic INS-1 cells have been selected for this study. The cells are cultured in complete medium, RPMI 1640 10 mM glucose supplemented with 1 mM sodium pyruvate, 50 μM 2-mercaptoethanol, 2 mM glutamine, 10 mM HEPES, 100 IU/mL penicillin, 100 μg/mL streptomycin and 10% heat-inactivated fetal calf serum (FCS), as described by Asfari et al. (23). INS-1 cells are plated (4.5×10^4 cells/well) in 96-well poly-ornithine coated plates and cultured at 37° C. in a humidified atmosphere of 95% air/5% CO2. The day after, cells are pre-incubated with the tested molecules for 1 h. Then, after a medium change, cells are cultured for 24 h in a medium containing the tested molecules and 30 mM glucose, 0.05 mM myristic acid, 25 ng/mL INF, 25 ng/mL TNF and 5 ng/mL IL.
The efficacy of compounds to prevent apoptosis is then evaluated by the highly specific apoptosis detection kit from Chemicon (Ref. APT225). This procedure is based on the detection of single-stranded DNA (ssDNA) which is a specific marker of apoptotic cells (24).
Results are expressed in optical density (OD) arbitrary unit and % of reduction of the apoptosis induced by apoptotic condition. Following a Dunnett t-test, all compounds showing a significant decrease in % of apoptotic cells compared to apoptotic control conditions are considered active.

[2] = test system: human primary diabetic myotubes; assay: Glucose uptake in human diabetic myotube primary cultures; format: cell-based; conditions: myotubes from a diabetic patient, 24 h pre-treatment
Protocol: The myotubes from a diabetic patient were grown on HAM's F10-based media (Sigma, ref. N6908) supplemented with 15% of fetal bovine serum, 1 mM glutamine.
Myoblasts were seeded at 380,000 cells/well in 12-well plates. After 2 days of proliferation, the cells were placed in reduced serum conditions (2% horse serum) to induce differentiation. The myotubes were used after 5 days of differentiation.
Dulbecco's modified Eagle's medium (DMEM)-based media (Gibco, ref. 31053-028) supplemented with 2% heat-inactivated horse serum, 2% Glutamax (Gibco, ref. 35050) and washed for glucose uptake assays. Compounds were dissolved in DMSO to reach the desired final concentration prior to use.
The differentiated myotubes were treated for 24 h with the compositions of the invention before the assay.
Before the initiation of glucose uptake, the cells were deprived of serum and glucose. A deprivation was first performed in DMEM media containing reduced glucose (1 g/L) and no serum. After adding the compounds at the desired concentrations, the cells were incubated at 37° C. during 2 h30. […] A subsequent glucose and serum deprivation was performed in HBS buffer at 37° C. for 2 hours. The cells were treated with a mixture of 2-[^3H]deoxyglucose 10 Ci/mM+2-deoxy-D-glucose at 10 μM for 30 min. […] The cell lysates were transferred into scintillation vials for the measurement of radioactivity with a MicroBeta counter.

[3] = test system: TNFα-induced insulin resistant 3T3-L1 differentiated adipocytes; assay: Glucose uptake in TNFα-induced insulin resistant 3T3-L1 differentiated adipocytes; format: cell-based; conditions: for enhancement of glucose uptake: drug alone, vs non-treated insulin-resistant cells (TNFα); for enhancement of glucose uptake, combination with metformin: ifenprodil 3.3 nM and metformin 100 μM, combined or alone at the same concentrations
Protocol: 3T3L1 fibroblasts were maintained in DMEM 4.5 g/L glucose supplemented with 5% calf serum donor, 5% newborn calf serum, 100 U/mL penicillin, and 100 μg/mL streptomycin at 37° C. under a 10% CO2 atmosphere. Cells were grown on 24-well plates at a density of 2560 cells/well in 0.5 mL of growth medium (DMEM 4.5 g/L glucose supplemented with 10% FCS, 100 U/mL penicillin, and 100 μg/mL streptomycin). […] Fresh media were replaced after two days.
Glucose uptake was measured by quantification of incorporated radiolabeled glucose, after an incubation step with 2-deoxy-D[1,2^3H] glucose for 5 min. Glucose uptake was arrested by two washing steps in ice-cold PBS 1×, then were solubilized in 0.1N NaOH for 30 min. Cell-associated radioactivity was then counted using a MicroBeta counter after adding 600 μL per well of scintillant (Optiphase SuperMix3).
In parallel, protein quantification was determined by a colorimetric assay derived from the Lowry method. Results are expressed in nmol of glucose incorporated/5 mn/mg of protein and in % of control or basal condition (100%).

hepatocytes = assay: Glucose production by hepatic cells; format: cell-based, rat; conditions: long-term, 0.01 μM (10 nM)
Protocol: Hepatocytes are isolated from 24 h-fasted male Wistar rats (200-250 g body weight) by ex situ liver perfusion in the presence of collagenase. Cell viability is validated by a trypan blue exclusion test. […] After plating, the medium is removed and cells are cultured for 16 h in RPMI medium without glucose (supplemented with the tested drugs for long-term evaluation). The following day, hepatic glucose production is assessed in Krebs-Ringer Bicarbonate HEPES buffer (KRBH; pH 7.4) in the presence of the neoglucogenic substrates (lactate 10 mM and pyruvate 1 mM) and the tested molecules for 4 h (short-term).
Supernatants are collected and glucose concentrations are determined using a glucose oxidase kit (Instrumentation Laboratory 0018250840). In parallel, protein quantification is performed using the colorimetric Lowry method.
Results are expressed in nmol glucose/mg protein and % of control condition (KLP: KRBH containing lactate and pyruvate).

Question: `CC(C(O)c1ccc(O)cc1)N1CCC(Cc2ccccc2)CC1` (stereo not shown) [ifenprodil] was tested. Which “Percentage of apoptosis reduction” value [1] did it give?
Answer: Its value is 54%.

Question: What about the “enhancement of glucose uptake” value ([2]; 0.1 μM) of the same molecule?
Answer: The value was “improvement”.

Question: And the “enhancement of glucose uptake” value ([2]; 1 μM)?
Answer: Its value is “improvement”.

Question: And the “enhancement of glucose uptake” value ([3]; 10 nM)?
Answer: Its value is “improvement”.

Question: What about the “enhancement of glucose uptake” value ([3]; 100 nM) of the same molecule?
Answer: The value was “improvement”.

Question: And the “enhancement of glucose uptake” value ([3]; 1 μM)?
Answer: Its value is “+140%”.

Question: And the “enhancement of glucose uptake, combination experiment” value ([3]; drugs combined at a dose as low as 3.3 nM, or used individually, vs TNFα cells, Dunnett's test)?
Answer: Its value is “No significant effect”.

Question: What about the “enhancement of glucose uptake, combination with metformin” value ([3]; vs TNFα cells) of the same molecule?
Answer: Its value is “No significant effect”.

Question: What about the “enhancement of glucose uptake, combination with metformin” value ([3]; vs TNFα cells, listed as Ifenprodil) of the same molecule?
Answer: The value was “does not lead to any significant improvement”.

Question: What about the “reduction of glucose production” value (hepatocytes) of the same molecule?
Answer: Its value is −22%.
